Measurements reported in paper PMC11820358 (Molecules, 2025).
“Also recorded” adds a separate entry of the source.

Assays:
[1] = target: T1, chymotrypsin (Bos taurus, UniProt P00766); experiment: Enzymatic degradation by chymotrypsin, substrate decay followed by HPLC; conditions: 37 °C; for Substrate decay rate constant in the presence of chymotrypsin: peptide 0.5 mg/mL in HEPES 50 mM pH 7.4, chymotrypsin 0.5 mg/mL, peptide:protease 40:1 (w/w), stopped with 1% TFA, HPLC-UV 215 nm, fit y=A0×exp(−k1×x), each experiment three times, Figure 7; for Enzymatic degradation by chymotrypsin, compared with 5-t: peptide 0.5 mg/mL, HEPES 50 mM pH 7.4, chymotrypsin 0.5 mg/mL, 40:1 (w/w), up to 8 h, HPLC, three times, Figures 5C, 6
[2] = target: T1, chymotrypsin; experiment: LC-MS analysis of enzymatic fragments and cleavage sites with chymotrypsin; type: in vitro ADME; parameters: purchased; conditions: LC-MS (ESI); HEPES 50 mM pH 7.4, 37 °C, peptide:protease 40:1
Experimental: To further investigate how glycosylation promotes the enzymatic digestion of D-amino acid-containing peptides, we analyzed the enzymatic cleavage sites of the glycosylated peptides using LC-MS (Figures S6–S14).
(β-D-GalNAc ) (H) in the presence of chymotrypsin. The peptides were dissolved in HEPES
Chymotrypsin was added to the above solution. In which the peptide: protease (ω: ω) = 40:1.
Incubation was performed at 37°C. Method of stopping enzymatic digestion after reaching
reaction time: Chymotrypsin is extinguished with 1% TFA. Each experiment was performed

[3] = test system: papain; experiment: papain in HEPES buffer (50 mM, pH=7.4); conditions: 37 °C, up to 8 h
[4] = test system: pepsin; experiment: pepsin in HEPES buffer (50 mM, pH=7.4); conditions: 37 °C, up to 8 h
[5] = test system: chymotrypsin; experiment: chymotrypsin in HEPES buffer solution (50 mM, pH = 7.4); conditions: 37 °C, up to 8 h
[6] = target: T2, Proteinase K (PROK) (Parengyodontium album, UniProt P06873); experiment: Enzymatic degradation by Proteinase K (PROK), protease resistance; type: in vitro ADME; conditions: peptide 0.5 mg/mL in HEPES 50 mM pH 7.4 (600 μL) + PROK 1.5 mg/mL (15.0 μL); 50 °C; 0-8 h; quenched with 1% TFA; HPLC 215 nm; three times; Figure 4
T2 construct: purchased
Experimental: The peptides were dissolved in HEPES buffer (50 mM, pH = 7.4) to a final concentration of 0.5 mg/mL. Proteinase K (PROK) was prepared in deionized water at a final concentration of 1.5 mg/mL. The peptide solutions (600 μL) were then incubated with PROK solution (15.0 μL) at 50 °C. At 0, 0.5, 1.0, 2.0, 4.0, and 8.0 h intervals, 100 μL of the digestion mixture was taken and quenched with 100 μL of 1% TFA in water. The enzymatic hydrolysis of peptides was monitored by HPLC at 215 nm. Each experiment was performed three times.

[7] = RP-HPLC retention time of peptides (hydrophobicity/polarity); type: physicochemical; conditions: chromatographic, C18 reversed phase, 0.1% TFA water/acetonitrile, gradient 10-50% solvent B over 30 min, 1 mL/min, UV; used as measure of hydrophobicity/polarity; Figure 3D
Experimental: Purification was performed on a ZORBAX Eclipse XDB-C18 reversed-phase column (5 μm, 9.4 × 250 mm, Agilent, Santa Clara, CA, USA) using solvent A (0.1% TFA in water) and solvent B (0.1% TFA in acetonitrile). Elution was performed at a flow rate of 1 mL/min with a gradient of 10–50% solvent B over 30 min, and detection was carried out using a UV detector at 220 nm. All purified peptide samples were freeze-dried to yield a white powder.

T2 sequence (P06873 106-384): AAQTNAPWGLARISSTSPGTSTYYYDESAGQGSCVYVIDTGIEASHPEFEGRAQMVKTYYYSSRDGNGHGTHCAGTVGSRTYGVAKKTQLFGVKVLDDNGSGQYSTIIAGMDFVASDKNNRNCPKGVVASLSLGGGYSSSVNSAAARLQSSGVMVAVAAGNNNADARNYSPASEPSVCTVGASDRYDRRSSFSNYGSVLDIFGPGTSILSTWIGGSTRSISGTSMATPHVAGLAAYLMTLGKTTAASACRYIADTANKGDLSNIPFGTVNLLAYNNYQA

Q: What does the source list for “KYNE(t-β-D-Rib)WRSED [5-t-(β-D-Rib), 5-t glycosylated with β-D-Ribose at Thr5]”?
A: Substrate decay rate constant in the presence of chymotrypsin [1]: 0.187 h⁻¹; Enzymatic degradation by chymotrypsin, compared with 5-t [1]: digested more efficiently than 5-t; Cleavage sites in the presence of chymotrypsin [2]: Tyr2-Asn3, Arg7-Ser8; Enzymatic fragments in the presence of chymotrypsin [2]: KY, KYNE-(t-β-D-Rib)-WR, NE-(t-β-D-Rib)-WR, NE-(t-β-D-Rib)-WRSED, SED

Q: What does the source list for KYNE(t-β-D-Glc)WRSED?
A: not cleaved [3]: no enzymatic degradation; substrate molar fraction 1.0 at 8 h; not cleaved [4]: no enzymatic degradation; substrate molar fraction 1.0 at 8 h; cleaved bond [5]: Tyr2-Asn3; also recorded: Arg7-Ser8

Q: With KTNE(t-β-D-Gal-NAc)WRSED as the substance, how does the cleaved bond [5] read?
A: Arg7-Ser8

Q: Which “Enzymatic degradation by PROK, substrate decay curves compared” value [6] does the source give for KYNE(t-β-D-Glc)WRSED [5-t-(β-D-Glc)] here?
A: nearly identical

Q: And the “Cleavage sites in the presence of chymotrypsin” value (“Cleavage sites in the presence” for short) [2]?
A: Tyr2-Asn3, Arg7-Ser8

Q: And the “Enzymatic fragments in the presence of chymotrypsin” value (“Enzymatic fragments in the presence” for short) [2]?
A: KY, NE-(t-β-D-Glc)-WR, NE-(t-β-D-Glc)-WRSED, SED

Q: Which “Substrate decay rate constant in the presence of chymotrypsin” value [1] does the source give for “KTNE(t-β-D-Gal-NAc)WRSED [5-t-(β-D-GalNAc), 5-t glycosylated with β-D-acetyl-Galactosamine at Thr5]” here?
A: 0.106 h⁻¹

Q: What about the “Cleavage sites in the presence” value [2] of the same substance?
A: Tyr2-Asn3, Arg7-Ser8

Q: And the “Enzymatic fragments in the presence” value [2]?
A: KY, NE-(t-β-D-GalNAc)-WR, NE-(t-β-D-Gal-NAc)-WRSED, SED

Q: For KYNE(t-β-D-Gal)WRSED [5-t-(β-D-Gal)], which “Cleavage sites in the presence” value [2] is on record?
A: Tyr2-Asn3, Arg7-Ser8

Q: And the “Enzymatic fragments in the presence” value [2]?
A: KY, NE-(t-β-D-Gal)-WR, NE-(t-β-D-Gal)-WRSED, SED

Q: What does the source list for “KYNEtWRSED [5-t, template peptide KYNEtWRSED containing D-Thr at position five]”?
A: Substrate decay rate constant in the presence of chymotrypsin [1]: 0.103 h⁻¹; Cleavage sites in the presence of chymotrypsin [2]: Tyr2-Asn3, Arg7-Ser8; Enzymatic fragments in the presence of chymotrypsin [2]: KY, NE-t-WR, NE-t-WRSED, SED

Q: For KYNE(t-α-D-Glc)WRSED, which cleaved bond [5] is on record?
A: Arg7-Ser8; also recorded: Tyr2-Asn3

Q: Which not cleaved [3] does the source give for KYNEtWRSED here?
A: no enzymatic degradation; substrate molar fraction 1.0 at 8 h

Q: And the not cleaved [4]?
A: no enzymatic degradation; substrate molar fraction 1.0 at 8 h

Q: What about the cleaved bond [5] of the same substance?
A: Tyr2-Asn3; also recorded: Arg7-Ser8

Q: With “KYNE(t-β-D-Glc-Ac4)WRSED [5-t-(β-D-Glc-Ac4)]” as the substance, how does the “Retention time in RP-HPLC” value [7] read?
A: 21.481 min

Q: With KYNEtWR(S-β-D-Glc)ED as the substance, how does the cleaved bond [5] read?
A: Tyr2-Asn3; also recorded: Arg7-Ser8

Q: For KYNE(t-β-D-Rib)WRSED, which cleaved bond [5] is on record?
A: Tyr2-Asn3; also recorded: Arg7-Ser8

Q: For KYNE(t-β-D-Gal)WRSED, which cleaved bond [5] is on record?
A: Tyr2-Asn3; also recorded: Arg7-Ser8

Q: With KYNE(t-β-L-Rib)WRSED as the substance, how does the cleaved bond [5] read?
A: Tyr2-Asn3; also recorded: Arg7-Ser8

Q: Which cleaved bond [5] does the source give for KYNE(t-β-D-Glc)WR(S-β-D-Glc)ED here?
A: Tyr2-Asn3; also recorded: Arg7-Ser8

Q: Which “Enzymatic degradation by PROK, substrate decay curves compared” value [6] does the source give for KYNEtWR(S-β-D-Glc)ED [5-t-(S-β-D-Glc)] here?
A: higher than that of 5-t-(β-D-Glc)

Q: And the “Cleavage sites in the presence” value [2]?
A: Tyr2-Asn3, Arg7-Ser8

Q: What about the “Enzymatic fragments in the presence” value [2] of the same substance?
A: KY, KYNE-t-WR, NE-t-WR, NE-t-WR-(S-β-D-Glc)-ED, (S-β-D-Glc)-ED

Q: What does the source list for KYNE(t-α-D-Glc)WRSED [5-t-(α-D-Glc)]?
A: Cleavage sites in the presence of chymotrypsin [2]: Tyr2-Asn3, Arg7-Ser8; Enzymatic fragments in the presence of chymotrypsin [2]: KY, NE-(t-α-D-Glc)-WR, NE-(t-α-D-Glc)-WRSED, SED

Q: For “KYNE(t-β-L-Rib)WRSED [5-t-(β-L-Rib), 5-t glycosylated with β-L-Ribose at Thr5]”, which “Enzymatic degradation by PROK, substrate decay curves compared” value [6] is on record?
A: more pronounced inhibitory effect on peptide enzymatic degradation compared to D-ribose

Q: And the “Substrate decay rate constant in the presence of chymotrypsin” value [1]?
A: 0.144 h⁻¹

Q: And the “Enzymatic degradation by chymotrypsin, compared with 5-t” value [1]?
A: digested more efficiently than 5-t

Q: What about the “Cleavage sites in the presence” value [2] of the same substance?
A: Tyr2-Asn3, Arg7-Ser8

Q: What about the “Enzymatic fragments in the presence” value [2] of the same substance?
A: KY, KYNE(t-β-L-Rib)-WR, NE-(t-β-L-Rib)-WR, NE-(t-β-L-Rib)-WRSED, SED
